Measurements as given in patent US20150368617A1, “METHOD FOR FORMING ENDOTHELIAL CELLS” (Korea Advanced Institute of Science and Technology (KAIST), priority 2012, published 2015).

Assays:
Assay type in all cases: cell-based, mouse
[1] = tested on: αMHC GFP+CMs; test: Sorted αMHC-GFP+ CMs in feeder-free condition; settings: Y27632 10 μM
Description: Analysis and sorting for CMs were performed at day 10.5. We harvested differentiated Flk1+ MPCs on OP9 cells with 0.25% trypsin-EDTA or dissociation buffer (Invitrogen). Cardiac troponin-T (cTnT)+ and ┌ smooth muscle actin (SMA)+ cells were analyzed after permeabilization using Cytofix/Cytoperm solution (BD Biosciences) for 15 min. After permeabilization, the cells were incubated for 30 min with anti-mouse cTnT (NeoMarkers) monoclonal antibody. After washing in 10% Perm/Wash buffer (BD Biosciences), the cells were incubated for 10 min with Alexa Fluor® 647 anti-mouse IgG (Invitrogen). After washing in 10% Perm/Wash buffer (BD Biosciences), the cells were incubated for 30 min with Cy3-conjugated anti-┌ SMA (clone 1A4, Sigma). We sorted out CMs using ┌ MHC GFP. Sorted Flk1+ MPCs on OP9 cells were harvested with 0.25% trypsin-EDTA or dissociation buffer (Invitrogen) and cells were washed using phosphate buffered saline/10% FBS twice. Dead cells were excluded using 7-aminoactinomycin D (Invitrogen). Then, we sorted out ┌ MHC GFP+CMs and plated on to 0.1% gelatin coated dish in the differentiation medium. The medium was changed every 2 days. Analyses and sorting were performed by FACS Aria II (Beckton Dickinson). Data were analyzed using FlowJo Version 7.5.4 software (TreeStar). […]

[2] = tested on: ICAM2+ ECs; test: Cell adhesion assay, ICAM2+ ECs; settings: 6 hrs after plating; in the presence of VEGF-A
Description: Sorted Flk1+ MPCs or ICAM2+ ECs were plated onto Matrigel coated plates at a density of 10,000 cells/cm^2. Six hrs after plating, non-adherent cells were removed by washing and the cell number of adherent cells was counted following trypsinization. The percentage of adherent cells was calculated as (counted cell number/initial seeded cell number)×100.

[3] = tested on: Flk1+ MPCs; test: Apoptosis assay (Annexin V/PI) in differentiating Flk1+ MPCs; settings: 6 and 36 hrs
Description: Apoptosis assay was performed as previously described. To determine the cell cycle, BrdU/7-AAD cell cycle analysis was performed according to the manufacturer's instructions (BD Pharmingen™). Briefly, cells were incubated with BrdU (1 mM) for 1 hr, dissociated with dissociation buffer, and stained with anti-CD144 antibody. The cells were then fixed, permeabilized, and fixed once more, followed by 1 hr incubation with DNase I (200 U) at 37┌ C. After incubation with FITC-conjugated anti-BrdU antibody for 20 min at RT, the cells were stained with 7-AAD. The cells were analyzed by FACS Aria II and the data were analyzed using FlowJo software.

## C[C@@H](N)[C@H]1CC[C@H](C(=O)Nc2ccncc2)CC1 [Y27632]
[1]; day 12.5
  self-beating CMs compared to control: much more self-beating CMs
[1]; day 14.5, confluent state
  area of self-beating CMs compared control: ~2.8 fold
[2]
  adhesion of ICAM2+ ECs onto the plate: 1.3 fold
[3]
  population of Annexin V+/PI- apoptotic cells: did not significantly change
